Entries after “also recorded” stand apart in the source; their conditions may differ. Where two headings read alike, the source gives them in different places. Each block holds one compound with its values, some of them ahead of it.
Tests used:
[1] = biological target: T1, ROS methyltransferase (bovine retinal rod outer segment S-adenosyl-L-methionine-dependent methyltransferase) (Bos taurus, UniProt A0AAA9SD88); assay: ROS methyltransferase assay: compounds as substrates (Km) or inhibitors (Ki) of AFC methylation; format: biochemical; conditions: for substrate activity for ROS methyltransferase / competitive inhibition of AFC methylation / inhibition of methyltransferase activity towards AFC: in words
T1 construct: utilizing ROS membranes as the source of methyltransferase enzyme; tissue Wanda Lawson Co., Lincoln, Nebr; (frozen bovine retinas); host or cells: bovine retinal rod outer segment (ROS) membranes
Experimental: Standard assays may be used to determine Km for substrates and Ki for inhibitors. […] The values of Ki and Km are calculated from kinetic assays by conventional means (Fersht, Enzyme Structure and Mechanism, W. H. Freeman and Co., New York, 1984). Examples are provided below to illustrate suitable assays, and are not intended to limit the invention.
One suitable assay of methylation functions uses bovine retinal rod outer segment (ROS) methyltransferase and a natural substrate, transducin. […] Another suitable assay uses N-acetyl-S-farnesylcysteine as a substrate for ROS methyltransferase.
The bovine retinal transducin γ subunit has a carboxyl-terminal --CAAX motif and undergoes a farnesylation reaction similar to that observed on ras (Lai et al., Proc. Natl. Acad. Sci. USA 87:7673, 1990; Fukada et al., Nature 346:658, 1990).
(§1) Frozen bovine retinas (Wanda Lawson Co., Lincoln, Nebr.) were used to prepare ROS membranes depleted of peripheral proteins using a modification of the procedure of Wessling-Resnick et al. (J. Biol. Chem. 262:3697, 1987). Briefly, ROS membranes were washed with low ionic strength buffer and 100μM GTP, resuspended in 50 mM Hepes-Na (pH 7.4), 100 mM NaCl, 5 mM MgCl2, 0.1 mM phenylmethylsulfonyl fluoride, 0.1 mM dithiothreitol (buffer A) and stored in small aliquots at -80° C. until used. Transducin was isolated by disrupting ROS membranes by passing the membranes through a narrow needle and washing the disrupted membranes in a series of centrifugation steps as described by Wessling-Resnick et al. (J. Biol. Chem. 262:3697, 1987). Finally transducin was eluted from the membranes with 100μM GTP. The transducin-enriched supernatant was concentrated using Centriprep (Amicon).
(§2) For initial studies, the reaction mixture contained 20 μCi of S-adenosyl-[methyl-^3 H] methionine ([^3 H]SAM) (2.34 μM, Amersham) and an aliquot of ROS (120μg of total protein) or of washed ROS membranes (80μg of total protein) in 100 μl of buffer A. Purified transducin was added to this mixture to a concentration of 5 μM. AFC, N-acetylcysteine, or AFC methylester was added in 2 μl of dimethyl sulfoxide to give a final concentration of 20 μM, and the reaction was carried out at 37° C.
The above-described methyltransferase assay was used to analyze the analogs described above.

[2] = biological target: T2, methyltransferase activity present in ROS membrane (Bos taurus, UniProt A0AAA9SD88); assay: In vitro [3H]SAM methylation of proteins by ROS membrane methyltransferase; format: biochemical, bovine; conditions: in words
T2 construct: substrates transducin gamma, 23-29 kDa small G proteins, AFC
Experimental: as §1, §2
Incubation of bovine ROS with [^3 H]SAM results in the radioactive labeling of polypeptides with apparent molecular masses of 88, 60, 23-29, and 6 kDa. The methylation of the 88-kDa protein (α subunit of retinal phosphodiesterase) and of the 23- to 29-kDa polypeptides has already been reported (Swanson et al., J. Biol. Chem. 258:10599, 1983; Ota et al., J. Biol. Chem. 264:12879, 1989). The 6-kDa polypeptide coincides with Tγ in SDS/polyacrylamide gels. Moreover, incubation of purified transducin with extensively washed ROS and [^3 H]SAM results in the labeling of the 6-kDa polypeptide and the membrane-associated 23- to 29-kDa proteins. […]

HL-60 cells = assay: Inhibition of HL-60 cell proliferation (trypan blue dye exclusion count); format: cell-based; conditions: FIG. 2; in words
Experimental: FTA, FTP, AFHC and AFC were tested for their ability to inhibit cell growth as follows.
HL-60 cells (ATCC CCL 240, American Type Culture Collection, Rockville, Md.) which harbor an activated ras gene were grown in RPMI medium (Gibco/BRL, Bethesda, Md.) supplemented with 10-15% fetal calf serum, L-glutamine, penicillin and streptomycin. These cells were treated with various concentrations of FTA, FTP, AFHC, or AFC dissolved in dimethyl sulfoxide (DMSO) or with DMSO only (In all experiments the final DMSO concentration was 1% or less). Treated ans untreated cells were incubated under standard culture conditions for several days. Cells were counted manually at 24 hour intervals using a trypan blue dye exclusion assay which counts only live, intact cells.

[3] = system: methyltransferase activity in HL-60 cells; assay: Methylation of AFC by activity present in HL-60 cell membrane; format: biochemical; conditions: in words
cell growth = conditions: Maltese et al., 1985; cited from earlier work
ras proteins = conditions: Hancock et al., 1989; cited from earlier work
[4] = system: cellular synthesis of mevalonic acid; conditions: in words; cited from earlier work
[5] = Table 1, conventional inhibitors, read-out: Ki
[6] = Table 1, substrates, read-out: Km
[7] = ROS membranes as source of enzyme, read-out: KM for methylation
[8] = calculated, read-out: Ki for inhibition of AFC methylation

T1 sequence (A0AAA9SD88 1-284): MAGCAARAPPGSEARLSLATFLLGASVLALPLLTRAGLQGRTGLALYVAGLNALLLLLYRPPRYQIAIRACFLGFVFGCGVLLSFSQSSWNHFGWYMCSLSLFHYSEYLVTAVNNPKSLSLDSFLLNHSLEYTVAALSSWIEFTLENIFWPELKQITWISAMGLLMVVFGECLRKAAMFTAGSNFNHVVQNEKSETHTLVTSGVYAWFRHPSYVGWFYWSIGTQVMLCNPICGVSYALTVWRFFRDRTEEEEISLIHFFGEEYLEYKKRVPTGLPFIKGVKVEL
T2 sequence (A0AAA9SD88 1-284): as above

Compound: CC(C)=CCC/C(C)=C/CC/C(C)=C/C[Se]CCC(=O)O
Ki [1]: 29 µM

status as conventional inhibitor (in place of Ki) ([1]; Table 1): inhibitor
Compound: 3-farnesylthiocyclohexanecarboxylic acid

Compound: CC(=O)NC(C[Se]C/C=C(\C)CC/C=C(\C)CCC=C(C)C)C(=O)O (racemic) [N-acetyl-Se-farnesyl-D,L-cysteine]
Km ([1]; Table 1, substrates): 51 µM

status as conventional inhibitor (in place of Ki) ([1]; Table 1): inhibitor
Compound: CC(C)=CCC/C(C)=C/CC/C(C)=C/CSCC[N+](=O)[O-] [2-farnesylthio-1-nitroethane]

status as conventional inhibitor (in place of Ki) ([1]; Table 1): inhibitor
Compound: CSC(CSC/C=C(\C)CC/C=C(\C)CCC=C(C)C)=NO [2-farnesylthio-S-methyl]

Ki [1, 5]: < 10 µM
Compound: CC(C)=CCC/C(C)=C/CC/C(C)=C/C[S+]([O-])CC(=O)O (stereo not drawn) [2-farnesylthioacetic acid sulfoxide]

Km [1, 6]: 21 µM
Compound: CC(C)=CCC/C(C)=C/CC/C(C)=C/CSCC(C)C(=O)O (stereo not drawn) [2-methyl-3-farnesylthiopropionic acid]

Km [1, 6]: 26 µM
Compound: CC(C)=CCC/C(C)=C/CC/C(C)=C/COCCC(=O)O [3-farnesyloxypropionic acid]

status as substrate (in place of Km) ([1]; Table 1): substrate
Compound: C=C(CSC/C=C(\C)CC/C=C(\C)CCC=C(C)C)C(=O)O [3-farnesylthio-2-methylenepropionic acid]

status as conventional inhibitor (in place of Ki) ([1]; Table 1): inhibitor
Compound: CC(C)=CCC/C(C)=C/CC/C(C)=C/CSCC(C)[N+](=O)[O-] (stereo not drawn) [3-farnesylthio-2-nitropropane]

Ki [1, 5]: 40 µM
Compound: CC(C)=CCC/C(C)=C/CC/C(C)=C/CS/C=C\C(=O)O [3-farnesylthio-cis-acrylic acid]

Ki [1, 5]: 37 µM
Compound: CC(C)=CCC/C(C)=C/CC/C(C)=C/CS/C=C/C(=O)O [3-farnesylthio-trans-acrylic acid]

Ki [1, 5]: 30 to 40 µM
Compound: CC(C)=CCC/C(C)=C/CC/C(C)=C/CSC(C)CC(=O)O (stereo not drawn) [3-farnesylthiobutyric acid]

status as conventional inhibitor (in place of Ki) ([1]; Table 1): inhibitor
Compound: CCCCCCC(CC(=O)O)SC/C=C(\C)CC/C=C(\C)CCC=C(C)C (stereo not drawn) [3-farnesylthiononanoic acid]

status as conventional inhibitor (in place of Ki) ([1]; Table 1): inhibitor
Compound: CC(C)=CCC/C(C)=C/CC/C(C)=C/CSCCC(N)=O [3-farnesylthiopropionamide]

status as conventional inhibitor (in place of Ki) ([1]; Table 1): inhibitor
Compound: CC(C)=CCC/C(C)=C/CC/C(C)=C/CSCCC#N [3-farnesylthiopropionitrile]

Km [1, 7]: 23 µM
Km [1, 6]: 23 µM
incorporation of label by [3H]SAM into proteins ([2]; ROS): reduced incorporation of label
Compound: CC(=O)N[C@@H](CSC/C=C(\C)CC/C=C(\C)CCC=C(C)C)C(=O)O [AFC, N-acetyl-S-farnesylcysteine]
substrate activity for ROS methyltransferase [1]: acts as a substrate; also recorded: serves as a substrate; also recorded: can serve as a substrate
inhibition of proliferation of HL-60 cells (HL-60 cells): can inhibit proliferation
methylation by activity in membrane of HL-60 cells [3]: can be methylated

Ki [1, 5]: 13.2 µM
Ki [1, 8]: 11.6 µM
methylation of AFCS ([1]; even at 500 μM): not methylated
competitive inhibition of AFC methylation [1]: potent competitive inhibitors
Compound: CC(=O)N[C@@H](C[S+]([O-])C/C=C(\C)CC/C=C(\C)CCC=C(C)C)C(=O)O (stereo partly drawn) [AFCS, N-acetyl-S-oxo-farnesylcysteine]
substrate activity for ROS methyltransferase [1]: lack of activity; also recorded: not substrates

Ki [1, 5]: 36.3 µM
Ki [1, 8]: 30.2 µM
competitive inhibition of AFC methylation [1]: potent competitive inhibitors
Compound: CC(=O)N[C@@H](CCSC/C=C(\C)CC/C=C(\C)CCC=C(C)C)C(=O)O [AFHC, N-acetyl-S-farnesylhomocysteine]
substrate activity for ROS methyltransferase [1]: not a substrate; also recorded: not substrates
inhibition of proliferation of HL-60 cells (HL-60 cells): can inhibit proliferation

status as substrate (in place of Km) ([1]; Table 1): substrate
Compound: CC(=O)N[C@@H](CSC/C=C(\C)CCC=C(C)C)C(=O)O [AGC, N-acetyl-S-geranyl-L-cysteine]
substrate activity for ROS methyltransferase [1]: exceedingly weak substrate; also recorded: marginal activity

Compound: CC(=O)N[C@@H](CSCCC(C)CCCC(C)CCCC(C)C)C(=O)O (stereo partly drawn) [ATC, N-acetyl-S-(3,7,11-trimethyldodecanyl)-L-cysteine]
substrate activity for ROS methyltransferase [1]: inactive as a substrate; also recorded: lack of activity

Km ([1]; AFC system, ROS membranes, read-out: apparent KM): 2 µM
Compound: C[S+](CC[C@H](N)C(=O)O)C[C@H]1O[C@@H](n2cnc3c(N)ncnc32)[C@H](O)[C@@H]1O (stereo partly drawn) [AdoMet, S-adenosyl-L-methionine, reference compound]

Km [1, 7]: 13.7 µM
Km [1, 6]: 14 µM
Compound: CC(C)=CCC/C(C)=C/CC/C(C)=C/CSCCC(=O)O [FTP, 3-farnesylthiopropionic acid]
substrate activity for ROS methyltransferase [1]: active substrate; also recorded: also a substrate
inhibition of proliferation of HL-60 cells (HL-60 cells): can inhibit proliferation

Compound: CC[C@H](C)C(=O)O[C@H]1C[C@@H](C)C=C2C=C[C@H](C)[C@H](CC[C@@H]3C[C@@H](O)CC(=O)O3)[C@H]21 [Mevinolin]
cell growth block (cell growth): blocked in cell growth in the G1 phase and the G2/M phase
post-translational processing of ras proteins (ras proteins): affects
ras membrane localization (ras proteins): interferes
cellular synthesis of mevalonic acid [4]: inhibits

Km [1, 6]: 42 µM
Compound: CC(=O)N[C@H](CSC/C=C(\C)CC/C=C(\C)CCC=C(C)C)C(=O)O [N-acetyl-S-farnesyl-D-cysteine]

substrate activity for ROS methyltransferase [1]: not a substrate
Compound: CC(=O)N[C@@H](CS)C(=O)O [N-acetylcysteine, reference compound]

status as substrate (in place of Km) ([1]; Table 1): substrate
Compound: CC(C)=CCC/C(C)=C/CC/C(C)=C/CSC[C@H](NC(=O)c1ccccc1)C(=O)O [N-benzoyl-S-farnesylcysteine]

Compound: CC(C)=CCC/C(C)=C/CC/C(C)=C/CSCC(N)C(=O)O (stereo not drawn) [S-farnesylcysteine]
status as conventional inhibitor (in place of Ki) ([1]; Table 1): inhibitor

inhibition of methyltransferase activity towards AFC [1]: inhibited
inhibition of methyltransferase activity present in ROS membrane [2]: inhibited
Compound: Nc1ncnc2c1ncn2[C@@H]1O[C@H](CSCC[C@H](N)C(=O)O)[C@@H](O)[C@H]1O [SAH, reference compound]

inhibition of methyltransferase activity towards AFC [1]: inhibited
inhibition of methyltransferase activity present in ROS membrane [2]: inhibited
Compound: Nc1ncnc2c1ncn2[C@@H]1O[C@H](C[C@@H](N)CC[C@H](N)C(=O)O)[C@@H](O)[C@H]1O [sinefungin, reference compound]

status as substrate (in place of Km) ([1]; Table 1): substrate
Compound: N-acetylgeranylgeranylcysteine

status as conventional inhibitor (in place of Ki) ([1]; Table 1): inhibitor
Compound: disodium 2-farnesylthioethyl phosphate
